Experimental data reported in US20260272964A1, “PENTAGALLOYL GLUCOSE DERIVED FROM SCHINUS PLANTS AND METHODS OF USE” (Emory University, priority 2020, published 2026).
Converted amounts (≈) assume the structure as drawn. “And” between values parts separate entries of the source, which are not always exact repeats. Identical values can stand only once. Like-named read-outs stand apart in the source and are kept apart here.

Legend:
[1] = test system: ESKAPE pathogens; test: Growth inhibition of a panel of ESKAPE pathogens (overall); assay type: cell-based
Method: PGG was also tested against a panel of other ESKAPE pathogens: Enterococcus faecium, Staphylococcus aureus, Klebsiella pneumoniae, Pseudomonas aeruginosa, and Enterobacter cloacae.

[2] = test system: Acinetobacter baumannii; test: Growth inhibition of Acinetobacter baumannii (CRAB and susceptible strains); assay type: cell-based; details: for IC50 / MIC: Acinetobacter baumannii
Method: A natural products library was screened for growth inhibition of CRAB. Lead extracts were then tested in serial dilution and nine extracts from seven species were chosen for further study based on activity. Extract 429, made from the leaves of Schinus terebinthifolia, underwent bioassay-guided fractionation for growth inhibition (FIG. 1).
A library of botanical extracts generated from plants was screened for growth inhibition of CRAB. […] Bioassay-guided fractionation lead to the isolation of pentagalloyl glucose (PGG), a bioactive gallotannin. […] Topical applications of PGG, such as wound rinses and dressings, are contemplated. […]

With `O=C(OC[C@H]1O[C@@H](OC(=O)c2cc(O)c(O)c(O)c2)[C@H](OC(=O)c2cc(O)c(O)c(O)c2)[C@@H](OC(=O)c2cc(O)c(O)c(O)c2)[C@@H]1OC(=O)c1cc(O)c(O)c(O)c1)c1cc(O)c(O)c(O)c1` [PGG, [(2R,3R,4S,5R,6S)-3,4,5,6-tetrakis[(3,4,5-trihydroxybenzoyl)oxy]oxan-2-yl]methyl 3,4,5-trihydroxybenzoate] the “concentrations with activity against a wide range of pathogenic bacteria” value [1] was no less than 64 µg/mL, the “growth inhibition compared to PGG isolated from S. terebinthifolia” value ([2]; A. baumannii) was “identical growth inhibition” and the “inhibition at which dose-response curves level off” value ([2]; A. baumannii, high concentrations) was 85-95%. It also gave an IC50 ([2]; A. baumannii strains tested in this study, read-out: median IC50 for growth inhibition) of 8 µg/mL (≈ 8.5 µM), an MIC ([2]; A. baumannii, strain not given, read-out: MIC) of 64 µg/mL (≈ 68 µM) and an IC50 ([2]; ATCC17978, strain ATCC17978, read-out: PGG IC50) of 8 µg/mL (≈ 8.5 µM). For the same compound, the MIC ([2]; ATCC17978, strain ATCC17978, read-out: PGG MIC) was greater than 256 µg/mL, the MIC ([2]; fourteen strains, read-out: MICs of fourteen of the A. baumannii strains tested) was greater than 256 µg/mL and the IC50 ([2]; read-out: IC50s, range over strains, one susceptible and 23 drug resistant strains (19 CRAB)) was 8 µg/mL to 64 µg/mL and 8.5 µM to 68 µM. The IC50 ([2]; strain AB5075, read-out: PGG IC50) was 16 µg/mL (≈ 17 µM), the MIC ([2]; strain AB5075, read-out: PGG MIC) was 256 µg/mL (≈ 272 µM) and the IC50 ([2]; strain AR Bank #0033, read-out: PGG IC50) was 8 µg/mL (≈ 8.5 µM). For the same compound, the MIC ([2]; strain AR Bank #0033, read-out: PGG MIC) was greater than 256 µg/mL, the IC50 ([2]; strain AR Bank #0035, read-out: PGG IC50) was 8 µg/mL (≈ 8.5 µM) and the MIC ([2]; strain AR Bank #0035, read-out: PGG MIC) was 256 µg/mL (≈ 272 µM). For the same compound, the IC50 ([2]; strain AR Bank #0036, read-out: PGG IC50) was 16 µg/mL (≈ 17 µM), the MIC ([2]; strain AR Bank #0036, read-out: PGG MIC) was greater than 256 µg/mL and the IC50 ([2]; strain AR Bank #0037, read-out: PGG IC50) was 8 µg/mL (≈ 8.5 µM). The MIC ([2]; strain AR Bank #0037, read-out: PGG MIC) was greater than 256 µg/mL, the IC50 ([2]; strain AR Bank #0045, read-out: PGG IC50) was 8 µg/mL (≈ 8.5 µM) and the MIC ([2]; strain AR Bank #0045, read-out: PGG MIC) was 128 µg/mL (≈ 136 µM). For the same compound, the IC50 ([2]; strain AR Bank #0070, read-out: PGG IC50) was 16 µg/mL (≈ 17 µM), the MIC ([2]; strain AR Bank #0070, read-out: PGG MIC) was greater than 256 µg/mL and the IC50 ([2]; strain AR Bank #0102, read-out: PGG IC50) was 8 µg/mL (≈ 8.5 µM). It also gave an MIC ([2]; strain AR Bank #0102, read-out: PGG MIC) greater than 256 µg/mL, an IC50 ([2]; strain AR Bank #0273, read-out: PGG IC50) of 8 µg/mL (≈ 8.5 µM) and an MIC ([2]; strain AR Bank #0273, read-out: PGG MIC) of 128 µg/mL (≈ 136 µM). For the same compound, the IC50 ([2]; strain AR Bank #0274, read-out: PGG IC50) was 64 µg/mL (≈ 68 µM), the MIC ([2]; strain AR Bank #0274, read-out: PGG MIC) was greater than 256 µg/mL and the IC50 ([2]; strain AR Bank #0275, read-out: PGG IC50) was 8 µg/mL (≈ 8.5 µM). It also gave an MIC ([2]; strain AR Bank #0275, read-out: PGG MIC) greater than 256 µg/mL, an IC50 ([2]; strain AR Bank #0277, read-out: PGG IC50) of 8 µg/mL (≈ 8.5 µM) and an MIC ([2]; strain AR Bank #0277, read-out: PGG MIC) greater than 256 µg/mL. It also gave an IC50 ([2]; strain AR Bank #0278, read-out: PGG IC50) of 8 µg/mL (≈ 8.5 µM), an MIC ([2]; strain AR Bank #0278, read-out: PGG MIC) greater than 256 µg/mL and an IC50 ([2]; strain AR Bank #0281, read-out: PGG IC50) of 8 µg/mL (≈ 8.5 µM). The MIC ([2]; strain AR Bank #0281, read-out: PGG MIC) was 128 µg/mL (≈ 136 µM), the IC50 ([2]; strain AR Bank #0282, read-out: PGG IC50) was 16 µg/mL (≈ 17 µM) and the MIC ([2]; strain AR Bank #0282, read-out: PGG MIC) was greater than 256 µg/mL. The IC50 ([2]; strain AR Bank #0283, read-out: PGG IC50) was 8 µg/mL (≈ 8.5 µM), the MIC ([2]; strain AR Bank #0283, read-out: PGG MIC) was greater than 256 µg/mL and the IC50 ([2]; strain AR Bank #0284, read-out: PGG IC50) was 8 µg/mL (≈ 8.5 µM). The MIC ([2]; strain AR Bank #0284, read-out: PGG MIC) was 64 µg/mL (≈ 68 µM), the IC50 ([2]; strain AR Bank #0295, read-out: PGG IC50) was 8 µg/mL (≈ 8.5 µM) and the MIC ([2]; strain AR Bank #0295, read-out: PGG MIC) was greater than 256 µg/mL.
